Reference: PubChem BioAssay AID276 (DTP/NCI, 2004)
Values joined by “and” are separate entries in the source; they are usually repeats but may differ in a detail not shown here. Identical values can stand only once. Inconclusive results and toxic doses are left out.

System: B6C3F1 mice, Lewis lung carcinoma iv, survival T/C
Assay: NCI In Vivo Anticancer Drug Screen. Data for tumor model Lewis Lung Carcinoma (intravenous) in B6C3F1 mice
Conditions: endpoint: median survival time, schedule: Q01DX009 (ip), higher = longer survival
Outline: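 Transplantable tumor in mice; compound treated vs vehicle controls; read-out survival; value = treated/control (T/C).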

[1] = dose: 3.12 mg/kg/injection, vehicle: saline with Tween-80
[2] = dose: 6.25 mg/kg/injection, vehicle: saline with Tween-80
[3] = dose: 6.25 mg/kg/injection, vehicle: saline
[4] = dose: 12.5 mg/kg/injection, vehicle: saline
[5] = dose: 25.0 mg/kg/injection, vehicle: saline
[6] = dose: 50.0 mg/kg/injection, vehicle: saline
[7] = dose: 100.0 mg/kg/injection, vehicle: saline
[8] = dose: 12.0 mg/kg/injection, vehicle: saline
[9] = dose: 25.0 mg/kg/injection, vehicle: saline with Tween-80
[10] = dose: 200.0 mg/kg/injection, vehicle: saline
[11] = dose: 12.5 mg/kg/injection, vehicle: saline with Tween-80
[12] = dose: 50.0 mg/kg/injection, vehicle: saline with Tween-80
[13] = dose: 100.0 mg/kg/injection, vehicle: saline with Tween-80
[14] = dose: 3.12 mg/kg/injection, vehicle: saline

In the case of `COc1cccc2c1C(=O)c1c(O)c3c(c(O)c1C2=O)C[C@@](O)(C(C)=O)C[C@@H]3OC1CC(N(Cc2ccccc2)Cc2ccccc2)C(O)C(C)O1` (stereo not given in full), the T/C (dose: 1.5 mg/kg/injection, vehicle: saline with Tween-80) is reported as 104 % of control, the T/C (dose: 1.5 mg/kg/injection, vehicle: water) is reported as 96 % of control and the T/C (dose: 1.56 mg/kg/injection, vehicle: saline with Tween-80) is reported as 103 % of control. The T/C (dose: 3.0 mg/kg/injection, vehicle: saline with Tween-80) was 112 % of control, the T/C (dose: 3.0 mg/kg/injection, vehicle: water) was 99 % of control and the T/C [1] was 114 % of control. The T/C (dose: 6.0 mg/kg/injection, vehicle: saline with Tween-80) was 113 % of control and the T/C [2] was 112 % of control and 116 % of control.

For `O=c1n(CC2CO2)c(=O)n(CC2CO2)n1CC1CO1` (stereo not given), the T/C [3] was 100 % of control, the T/C [4] was 108 % of control and the T/C [5] was 108 % of control.

In the case of `O=C1CN(CCN2CC(=O)N(CN3CCOCC3)C(=O)C2)CC(=O)N1CN1CCOCC1`, the T/C (dose: 100.0 mg/kg/injection, vehicle: water) is reported as 100 % of control.

For `Nc1ccn(C2OC(CO)C(O)C2O)c(=O)n1` (stereo not given), the T/C (dose: 1.0 mg/kg/injection, vehicle: saline) was 98 % of control, the T/C (dose: 2.0 mg/kg/injection, vehicle: saline) was 97 % of control and the T/C (dose: 4.0 mg/kg/injection, vehicle: saline) was 100 % of control. The T/C (dose: 15.0 mg/kg/injection, vehicle: saline) was 110 % of control, the T/C [6] was 160 % of control and the T/C [7] was 203 % of control.

With `C=C1C(=O)OC2/C=C(\C)CC(O)/C=C(/CO)CC(OC(=O)/C(C)=C/C)C12` (stereo not given) the T/C (dose: 15.0 mg/kg/injection, vehicle: saline with Tween-80) was 91 % of control and the T/C (dose: 30.0 mg/kg/injection, vehicle: saline with Tween-80) was 101 % of control.

For `O=C(C1CO1)C(Cl)(Cl)Cl` (stereo not given), the T/C (dose: 1.5 mg/kg/injection, vehicle: saline) was 95 % of control, the T/C (dose: 3.0 mg/kg/injection, vehicle: saline) was 92 % of control and the T/C (dose: 6.0 mg/kg/injection, vehicle: saline) was 97 % of control. For the same compound, the T/C [8] was 95 % of control and the T/C [9] was 108 % of control.

In the case of `CC1(C)COCN1COCCOCN1COCC1(C)C`, the T/C [3] is reported as 103 % of control, the T/C [4] is reported as 108 % of control and the T/C [5] is reported as 97 % of control. For the same compound, the T/C [6] was 104 % of control and the T/C [7] was 107 % of control.

`Cc1[nH]ccc(=O)c1O` was tested, and the T/C (dose: 16.0 mg/kg/injection, vehicle: saline with Tween-80) was 87 % of control, the T/C (dose: 32.0 mg/kg/injection, vehicle: saline with Tween-80) was 95 % of control and the T/C (dose: 64.0 mg/kg/injection, vehicle: saline with Tween-80) was 101 % of control. The T/C (dose: 128.0 mg/kg/injection, vehicle: saline with Tween-80) was 108 % of control and the T/C (dose: 256.0 mg/kg/injection, vehicle: saline with Tween-80) was 99 % of control.

For `COc1ccc(C[C@H](N)C(=O)NC2C(CO)OC(n3cnc4c(N(C)C)ncnc43)C2O)cc1` (stereo not given in full), the T/C (dose: 5.0 mg/kg/injection, vehicle: saline) was 99 % of control, the T/C (dose: 10.0 mg/kg/injection, vehicle: saline) was 104 % of control and the T/C (dose: 20.0 mg/kg/injection, vehicle: saline) was 114 % of control. The T/C (dose: 40.0 mg/kg/injection, vehicle: saline) was 109 % of control and the T/C (dose: 80.0 mg/kg/injection, vehicle: saline) was 114 % of control.

For `NC(=O)/C=C/c1c[nH]c2nccnc12`, the T/C (dose: 1.56 mg/kg/injection, vehicle: water) was 94 % of control, the T/C (dose: 3.12 mg/kg/injection, vehicle: water) was 88 % of control and the T/C (dose: 6.25 mg/kg/injection, vehicle: water) was 92 % of control. The T/C (dose: 12.5 mg/kg/injection, vehicle: water) was 94 % of control and the T/C (dose: 25.0 mg/kg/injection, vehicle: water) was 94 % of control.

For `CCOC(=O)C(N)CSC(=O)NC` (stereo not given), the T/C [4] was 98 % of control, the T/C [5] was 103 % of control and the T/C [6] was 93 % of control. For the same compound, the T/C [7] was 101 % of control and the T/C [10] was 109 % of control.

In the case of `CC(=O)N(C)c1ccc(Nc2cc(C)[nH]c3ccc4ncnc4c23)cc1`, the T/C [3] is reported as 100 % of control, the T/C [4] is reported as 100 % of control and the T/C [5] is reported as 105 % of control. For the same compound, the T/C [6] was 102 % of control.

With `CCN(CC)CCOCCO` the T/C [8] was 96 % of control, the T/C [5] was 99 % of control and the T/C [6] was 99 % of control. For the same compound, the T/C [7] was 101 % of control.

In the case of `Cc1ccc2c(c1)N=C(Nc1ccccc1)N=S2(C)=O` (stereo not given), the T/C [2] is reported as 99 % of control, the T/C [11] is reported as 92 % of control and the T/C [9] is reported as 93 % of control. For the same compound, the T/C [12] was 95 % of control, the T/C [13] was 108 % of control and the T/C (dose: 200.0 mg/kg/injection, vehicle: saline with Tween-80) was 119 % of control.

In the case of `O=[Te]=O`, the T/C (dose: 3.0 mg/kg/injection, vehicle: suspension in saline) is reported as 121 % of control, the T/C [14] is reported as 102 % of control and the T/C (dose: 6.0 mg/kg/injection, vehicle: suspension in saline) is reported as 101 % of control. The T/C [3] was 100 % of control, the T/C (dose: 12.0 mg/kg/injection, vehicle: suspension in saline) was 101 % of control and the T/C [4] was 106 % of control. For the same compound, the T/C (dose: 24.0 mg/kg/injection, vehicle: suspension in saline) was 106 % of control and the T/C (dose: 48.0 mg/kg/injection, vehicle: suspension in saline) was 115 % of control.

`COc1ccc2c(ccc3oc([N+](=O)[O-])cc32)c1` was tested, and the T/C [11] was 98 % of control, the T/C [9] was 110 % of control and the T/C [12] was 104 % of control. For the same compound, the T/C [13] was 100 % of control.

In the case of `OCCN1CCN(CC/C=C2/c3ccccc3Sc3ccc(C(F)(F)F)cc32)CC1`, the T/C (dose: 0.19 mg/kg/injection, vehicle: saline) is reported as 114 % of control, the T/C (dose: 0.39 mg/kg/injection, vehicle: saline) is reported as 101 % of control and the T/C (dose: 0.78 mg/kg/injection, vehicle: saline) is reported as 102 % of control. The T/C (dose: 1.56 mg/kg/injection, vehicle: saline) was 98 % of control, the T/C [14] was 98 % of control and the T/C [3] was 108 % of control.

With `CC(=O)NCCCCCCNC(C)=O` the T/C [5] was 92 % of control and 96 % of control, the T/C [6] was 90 % of control and 92 % of control and the T/C [7] was 88 % of control and 106 % of control. For the same compound, the T/C [10] was 100 % of control and 102 % of control, the T/C (dose: 400.0 mg/kg/injection, vehicle: saline) was 96 % of control and 103 % of control and the T/C (dose: 800.0 mg/kg/injection, vehicle: saline) was 102 % of control and 105 % of control.

In the case of `CCCCCCCCCCCCSC1=C(Cl)C(=O)C(OC)=C(OC)C1=O`, the T/C [1] is reported as 99 % of control, the T/C [2] is reported as 94 % of control and the T/C [11] is reported as 99 % of control. The T/C [9] was 94 % of control and the T/C [12] was 96 % of control.

For `Oc1c(Cl)cc(C(c2cc(Cl)c(O)c(Cl)c2)C(c2cc(Cl)c(O)c(Cl)c2)c2cc(Cl)c(O)c(Cl)c2)cc1Cl`, the T/C (dose: 12.5 mg/kg/injection, vehicle: Klucel (hydroxypropylcellulose) (HPC)) was 98 % of control, the T/C (dose: 25.0 mg/kg/injection, vehicle: Klucel (hydroxypropylcellulose) (HPC)) was 101 % of control and the T/C (dose: 50.0 mg/kg/injection, vehicle: Klucel (hydroxypropylcellulose) (HPC)) was 104 % of control. The T/C (dose: 100.0 mg/kg/injection, vehicle: Klucel (hydroxypropylcellulose) (HPC)) was 103 % of control and the T/C (dose: 200.0 mg/kg/injection, vehicle: Klucel (hydroxypropylcellulose) (HPC)) was 106 % of control.

In the case of `c1ccc2c(c1)-c1ccccc1C1NC21` (stereo not given), the T/C [2] is reported as 100 % of control and the T/C [11] is reported as 106 % of control.
